# Source: patent US20070276011A1, “Plasminogen Activator Inhibitor-1 Inhibitor” (priority 2003, published 2007)
# Target: recombinant human PAI-1 (Homo sapiens, UniProt P05121)
# Test: PAI-1 inhibitory activity, Test Method A (tPA fluorogenic substrate, Tris buffer pH8.0, 37 C)
# Type: biochemical
# Conditions: 25 μM test compound; Test Method A
# Sequence of recombinant human PAI-1 (P05121 24-402): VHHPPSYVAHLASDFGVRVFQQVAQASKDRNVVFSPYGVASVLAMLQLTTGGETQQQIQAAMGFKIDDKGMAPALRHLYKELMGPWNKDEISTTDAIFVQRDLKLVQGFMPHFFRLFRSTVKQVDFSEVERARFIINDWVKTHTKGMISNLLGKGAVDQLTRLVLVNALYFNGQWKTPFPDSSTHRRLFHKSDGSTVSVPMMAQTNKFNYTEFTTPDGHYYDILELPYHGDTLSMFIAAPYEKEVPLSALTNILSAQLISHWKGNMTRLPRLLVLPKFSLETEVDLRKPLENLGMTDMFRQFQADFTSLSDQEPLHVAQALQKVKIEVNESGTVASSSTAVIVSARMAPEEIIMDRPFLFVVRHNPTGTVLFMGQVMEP
row,SMILES,Inhibitory Ratio at 25 μM (%)
1,O=C1C(=Cc2cc(Br)ccc2O)C(c2ccc(O)cc2)=NN1c1cc(Cl)cc(Cl)c1 [compound 510],86
2,"COc1ccc(NC(=O)c2cc(C=C3SC(=O)N(Cc4ccc(Cl)c(Cl)c4)C3=O)ccc2O)cn1 [compound 407, 5-{4-hydroxy-3-[(2-methoxypyridin-5-yl)carbamoyl]benzylidene}-3-(3,4-dichlorobenzyl)thiazolidine-2,4-dione]",97
3,"COc1ccc(Oc2ccc([N+](=O)[O-])c(C=C3C(=O)N(c4ccc(Cl)c(Cl)c4)N=C3C(C)C)c2)cc1OC [Compound No. 563, 4-[2-Nitro-5-(3,4-dimethoxyphenoxy)benzylidene]-1-(3,4-dichlorophenyl)-3-isopropyl-2-pyrazolin-5-one]",62
4,O=C(Nc1ccc(O)c(O)c1)c1cc(C=C2SC(=O)N(Cc3cc(C(F)(F)F)ccc3C(F)(F)F)C2=O)ccc1O [compound 374],>99
5,O=C(Nc1cc(C(F)(F)F)ccc1Oc1ccc(O)cc1)c1cc(C=C2SC(=O)N(Cc3ccc(Cl)c(Cl)c3)C2=O)ccc1O [compound 422],95
6,O=C(O)c1cc(C=C2SC(=O)N(Cc3ccc(Cl)c(Cl)c3)C2=O)cc(-c2ccccc2)c1O [compound 430],87
7,"O=C1SC(=Cc2ccc(O)c(O)c2)C(=O)N1Cc1ccc(Nc2ccccc2)cc1 [compound 302, 5-(3,4-Dihydroxybenzylidene)-3-[4-(phenylamino)benzyl]thiazolidine-2,4-dione]",>99
8,O=C(Nc1ccc(O)c(O)c1)c1cc(C=C2SC(=O)N(Cc3cc(Cl)cc(Cl)c3)C2=O)ccc1O [compound 396],95
9,CC(C)C1=NN(c2ccc(Cl)c(Cl)c2)C(=O)C1=Cc1cc(O)ccc1[N+](=O)[O-] [compound 558],>99
10,O=C(Nc1ccc(O)c(O)c1)c1cc(C=C2SC(=O)N(Cc3ccc(-c4ccccc4)cc3)C2=O)ccc1O [compound 373],93
11,"COc1ccc(NC(=O)c2cc(C=C3SC(=O)N(Cc4cccc(Oc5ccccc5)c4)C3=O)ccc2O)cc1OC [compound 399, 5-[4-Hydroxy-3-(3,4-dimethoxyphenylcarbamoyl)benzylidene]-3-(3-phenoxybenzyl)thiazolidine-2,4-dione]",>99
12,COc1ccc(C=C2SC(=O)N(Cc3ccc(Cl)c(Cl)c3)C2=O)cc1O [compound 323],21
13,"O=C(Nc1ccccc1)c1ccc(CN2C(=O)SC(=Cc3ccc(O)c(O)c3)C2=O)cc1 [compound 301, 5-(3,4-Dihydroxybenzylidene)-3-[4-(phenylcarbamoyl)benzyl]thiazolidine-2,4-dione]",>99
14,CCOC1=NN(c2ccc([N+](=O)[O-])cc2)C(=O)C1=Cc1cc(C=Cc2ccccc2)ccc1O[Si](C)(C)C(C)(C)C [compound 543],>99
15,CCOC1=NN(c2ccc([N+](=O)[O-])cc2)C(=O)C1=Cc1c(O)cccc1O [compound 552],95
16,"O=C(OCc1ccccc1)c1cc(C=C2SC(=O)N(Cc3cc(C(F)(F)F)ccc3C(F)(F)F)C2=O)ccc1O [compound 363, 5-(3-Benzyloxycarbonyl-4-hydroxybenzylidene)-3-[2,5-bis(trifluoromethyl)benzyl]thiazolidine-2,4-dione]",84
17,O=C(Nc1cc(C(F)(F)F)ccc1C(F)(F)F)c1cc(C=C2SC(=O)N(Cc3ccc(Cl)c(Cl)c3)C2=O)ccc1O [compound 403],58
18,"O=C1C(=Cc2ccc(O)c(O)c2)SC(=S)N1Cc1ccc(C(F)(F)F)cc1 [compound 307, 5-(3,4-Dihydroxybenzylidene)-3-[4-(trifluoromethyl)benzyl]rhodanine]",>99
19,COc1ccc(NC(=O)c2cc(C=C3SC(=O)N(Cc4ccc(Cl)c(Cl)c4)C3=O)cc(OC)c2O)cc1C(F)(F)F [compound 360],>99
20,"COc1ccc(NC(=O)c2cc(C=C3SC(=O)N(Cc4ccc([N+](=O)[O-])cc4)C3=O)ccc2O)cc1OC [compound 376, 5-[4-Hydroxy-3-(3,4-dimethoxyphenylcarbamoyl)benzylidene]-3-(4-nitrobenzyl)thiazolidine-2,4-dione]",84
21,COc1cc(OC)c(OC)cc1C=C1C(=O)N(c2cc(Cl)cc(Cl)c2)N=C1C(C)C [compound 506],50
22,"O=C1SC(=Cc2cccc(Oc3ccccc3)c2)C(=O)N1Cc1cc(O)c(O)c(O)c1 [compound 310, 5-(3-Phenoxybenzylidene)-3-(3,4,5-trihydroxybenzyl)thiazolidine-2,4-dione]",>99
23,"COc1cc(NC(=O)c2cc(C=C3SC(=O)N(Cc4ccc(Cl)c(Cl)c4)C3=O)ccc2O)cc(OC)c1OC [compound 433, 5-[4-hydroxy-3-(3,4,5-trimethoxyphenylcarbamoyl)benzylidene]-3-(3,4-dichlorobenzyl)thiazolidine-2,4-dione]",>99

# Same assay, conditions: 50% inhibitory concentration of PAI-1 activity, according to the aforementioned method
row,SMILES,IC50 [nM]
1,"O=C1C(=Cc2ccc(O)c(O)c2)SC(=S)N1Cc1ccc(C(F)(F)F)cc1 [compound 307, 5-(3,4-Dihydroxybenzylidene)-3-[4-(trifluoromethyl)benzyl]rhodanine]",580

# Same assay, conditions: test compound 25 μM; Test Method A
row,SMILES,Inhibitory Ratio at 25 μM (%)
1,COC(=O)c1cccc(-c2ccc(C=C3C(=O)N(c4ccc(F)cc4)N=C3O)o2)c1 [compound 160],50
2,CC(C)C1=NN(c2cc(Cl)cc(Cl)c2)C(=O)C1=Cc1ccc(Br)cc1 [compound 207],46
3,CC1=NN(c2cccc(C(=O)O)c2)C(=O)C1=Cc1cc(Br)ccc1OCc1ccccc1 [compound 173],66
4,CC(C)(C)c1cc(CN2C(=O)SC(=Cc3ccc(O)c(O)c3)C2=O)cc(C(C)(C)C)c1O [compound 14],>99
5,C=CCOc1ccc(C=C2C(=O)N(c3ccc(Cl)c(C(=O)O)c3)N=C2C)cc1OC [compound 169],27
6,"O=C1SC(=Cc2ccc(O)c(O)c2)C(=O)N1Cc1ccc(C=Cc2cc(C(F)(F)F)cc(C(F)(F)F)c2)cc1 [compound 58, 5-(3,4-Dihydroxybenzylidene)-3-{4-[3,5-bis(trifluoromethyl)styryl]-benzyl}thiazolidine-2,4-dione]",95
7,O=C(O)c1cccc(N2N=C(C(F)(F)F)C(=Cc3ccc(-c4cc(Cl)cc(Cl)c4)s3)C2=O)c1 [compound 184],43
8,"O=C1SC(=Cc2cccc(O)c2O)C(=O)N1Cc1cccc(Oc2ccccc2)c1 [compound 16, 5-(2,3-Dihydroxybenzylidene)-3-(3-phenoxybenzyl)thiazolidine-2,4-dione]",>99
9,"COc1cc(OC)c(OC)cc1CN1C(=O)SC(=Cc2cccc(O)c2O)C1=O [compound 15, 5-(2,3-Dihydroxybenzylidene)-3-(2,4,5-trimethoxybenzyl)thiazolidine-2,4-dione]",93
10,COC(=O)c1cccc(N2N=C(C(F)(F)F)C(=Cc3ccc(SCCN(C)C)s3)C2=O)c1 [compound 178],40
11,"CCOC(=O)c1cc(C=C2SC(=O)N(Cc3cc(C(F)(F)F)cc(C(F)(F)F)c3)C2=O)ccc1O [compound 28, 5-(3-Ethoxycarbonyl-4-hydroxybenzylidene)-3-[3,5-bis(trifluoromethyl)-benzyl]thiazolidine-2,4-dione]",62
12,CC1=NN(c2cccc(C(F)(F)F)c2)C(=O)C1=Cc1cccc(O)c1 [compound 122],35
13,"CC(C)(C)C1=NN(c2cc(Cl)cc(Cl)c2)C(=O)C1=Cc1ccc(O)c(O)c1 [compound 138, 4-(3,4-Dihydroxybenzylidene)-1-(3,5-dichlorophenyl)-3-(tert-butyl)-2-pyrazolin-5-one]",>99
14,Cc1ccc(N2N=C(C(C)C)C(=Cc3cccc(O)c3)C2=O)cc1Cl [compound 121],80
15,CCOC1=NN(c2ccc([N+](=O)[O-])cc2)C(=O)C1=Cc1ccc(O)c(O)c1O [compound 155],39
16,O=C(O)c1cccc(-c2ccc(C=C3SC(=S)N(c4cccc(F)c4)C3=O)o2)c1 [compound 62],36
17,CCOC1=NN(c2ccc([N+](=O)[O-])cc2)C(=O)C1=Cc1ccc(O)c(O)c1 [compound 116],>99
18,O=C1C(=Cc2ccc(Br)o2)C(c2ccccc2)=NN1c1cccc([N+](=O)[O-])c1 [compound 199],85
19,O=C1C(=Cc2cc(O)c(O)c(O)c2)C(c2ccccc2)=NN1c1cc(Cl)cc(Cl)c1 [compound 131],>99
20,"CC(C)C1=NN(c2cccc([N+](=O)[O-])c2)C(=O)C1=Cc1ccc(Br)o1 [compound 200, 4-[(5-Bromofuran-2-yl)methylene]-1-(3-nitrophenyl)-3-isopropyl-2-pyrazolin-5-one]",53
21,"CC1=NN(c2ccc(Cl)c(Cl)c2)C(=O)C1=Cc1cc(O)c(O)c(O)c1 [compound 144, 4-(3,4,5-Trihydroxybenzylidene)-1-(3,4-dichlorophenyl)-3-methyl-2-pyrazolin-5-one]",53
22,CC1=NN(c2ccc(Cl)c(C(=O)O)c2)C(=O)C1=Cc1ccc(-c2ccccc2Cl)o1 [compound 188],35
23,O=C1C(=Cc2cc(O)c(O)c(O)c2)C(c2ccccc2)=NN1c1ccc(Cl)c(Cl)c1 [compound 146],>99
24,O=C1C(=Cc2ccc(O)c(O)c2O)C(c2ccccc2)=NN1c1ccc(Cl)c(Cl)c1 [compound 148],62
25,CC(C)C1=NN(c2cc(Cl)cc(Cl)c2)C(=O)C1=Cc1ccc(O)c(C(=O)O)c1 [compound 106],>99
